Peptide text beside a SMILES is read from it.
Experiments:
[1] = Sensory evaluation of degree of sweetness relative to sugar; details: for degrees of sweetness: relative to a degree of sweetness of a 4% aqueous sucrose solution; for degree of sweetness: sensory evaluation
Excerpt: ^3 Degree of sweetness relative to a degree of sweetness of a 4%

[2] = Stability (half-life) in phosphate buffer of pH 3 at 70° C.; type: physicochemical; details: acidic aqueous solution
Procedure: The peptides of the present invention may be 2 to 15 times as stable as aspartame when measured in a phosphate buffer of pH 3 at 70° C. This range in stability as compared to aspartame includes all specific values and subranges therebetween. The half-lives (in a phosphate buffer of pH 3 at 70° C.) of α-L-aspartyl-D-valine (R)-α-methylthiomethylbenzylamide, α-L-aspartyl-D-isoleucine (R)-α-methylthiomethylbenzylamide and α-L-aspartyl-D-valine (S)-α-methoxycarbonylmethylbenzylamide in an acidic aqueous solution were approximately 220 hours, 650 hours and 139 hours respectively.

COC(=O)CC(NC(=O)[C@H](NC(=O)[C@@H](N)CC(=O)O)C(C)C)C1CCCCC1 (mixture of isomers) [Example 6, α-L-aspartyl-D-valine (RS)-α-cyclohexyl-β-methoxycarbonylethylamide]
degrees of sweetness [1]: 400
Degree of sweetness (relative to sugar) [1]: 400 times

CC[C@@H](NC(=O)[C@@H](N)CC(=O)O)C(=O)NC(CC(=O)OC)c1ccccc1 (mixture of isomers) [Example 10, α-L-aspartyl-D-α-aminobutyric acid (RS)-α-methoxycarbonylmethylbenzylamide]
degrees of sweetness [1]: 800
Degree of sweetness (relative to sugar) [1]: 800 times

CC[C@@H](NC(=O)[C@@H](N)CC(=O)O)C(=O)NC(CC(=O)OC)c1ccc(OC)cc1 (mixture of isomers) [Example 11]
degrees of sweetness [1]: 200
Degree of sweetness (relative to sugar) [1]: 200 times

CC[C@@H](NC(=O)[C@@H](N)CC(=O)O)C(=O)NC(CC(=O)OC)c1cccc2c1OCO2 (mixture of isomers) [Example 12]
degrees of sweetness [1]: 250
Degree of sweetness (relative to sugar) [1]: 250 times

CC[C@@H](NC(=O)[C@@H](N)CC(=O)O)C(=O)NC(CC(=O)OC)c1ccc(O)cc1 (mixture of isomers) [Example 13]
degrees of sweetness [1]: 200
Degree of sweetness (relative to sugar) [1]: 200 times

CC[C@@H](NC(=O)[C@@H](N)CC(=O)O)C(=O)NC(CC(=O)OC)c1ccc(C)cc1 (mixture of isomers) [Example 14]
degrees of sweetness [1]: 200
Degree of sweetness (relative to sugar) [1]: 200 times

CC[C@@H](NC(=O)[C@@H](N)CC(=O)O)C(=O)NC(CC(=O)OC)C1CCCCC1 (mixture of isomers) [Example 15, α-L-aspartyl-D-α-aminobutyric acid (RS)-α-cyclohexyl-β-methoxycarbonylethylamide]
degrees of sweetness [1]: 700
Degree of sweetness (relative to sugar) [1]: 700 times

CC[C@@H](NC(=O)[C@H](CC(=O)O)NCCC(C)(C)C)C(=O)NC(CC(=O)OC)c1ccccc1 (mixture of isomers) [Example 18, N-3,3-dimethylbutyl-α-L-aspartyl-D-α-aminobutyric acid (RS)-α-methoxycarbonylmethylbenzylamide]
degrees of sweetness [1]: 1250
Degree of sweetness (relative to sugar) [1]: 1,250 times

COC(=O)CC(NC(=O)[C@H](NC(=O)[C@H](CC(=O)O)NCCC(C)(C)C)C(C)C)c1ccccc1 (mixture of isomers) [Example 19, N-3,3-dimethylbutyl-α-L-aspartyl-D-valine (RS)-α-methoxycarbonylmethylbenzylamide]
degrees of sweetness [1]: 1250
Degree of sweetness (relative to sugar) [1]: 1,250 times

CC[C@@H](NC(=O)[C@H](CC(=O)O)NCCC(C)(C)C)C(=O)NC(CC(=O)OC)C1CCCCC1 (mixture of isomers) [Example 20, N-3,3-dimethylbutyl-α-L-aspartyl-D-α-aminobutyric acid (RS)-α-cyclohexyl-β-methoxycarbonylethylamide]
degrees of sweetness [1]: 1250
Degree of sweetness (relative to sugar) [1]: 1,250 times

CSC[C@H](NC(=O)[C@H](NC(=O)[C@@H](N)CC(=O)O)C(C)C)c1ccccc1 [Example 1, α-L-aspartyl-D-valine (R)-α-methylthiomethylbenzylamide]
degrees of sweetness [1]: 3000
Degree of sweetness (relative to sugar) [1]: 3,000 times
degree of sweetness [1]: approximately 3,000 times that of sugar
half-life [2]: approximately 220 hours

CSC[C@H](NC(=O)[C@@H](C)NC(=O)[C@@H](N)CC(=O)O)c1ccccc1 [Example 2, α-L-aspartyl-D-alanine (R)-α-methylthiomethylbenzylamide]
degrees of sweetness [1]: 1000
Degree of sweetness (relative to sugar) [1]: 1,000 times

CC[C@@H](NC(=O)[C@@H](N)CC(=O)O)C(=O)N[C@@H](CSC)c1ccccc1 [Example 3, α-L-aspartyl-D-α-aminobutyric acid (R)-α-methylthiomethylbenzylamide]
degrees of sweetness [1]: 4000
Degree of sweetness (relative to sugar) [1]: 4,000 times
degree of sweetness [1]: approximately 4,000 times that of sugar

CC[C@@H](C)[C@@H](NC(=O)[C@@H](N)CC(=O)O)C(=O)N[C@@H](CSC)c1ccccc1 [Example 4, α-L-aspartyl-D-isoleucine (R)-α-methylthiomethylbenzylamide]
degrees of sweetness [1]: 5000
Degree of sweetness (relative to sugar) [1]: 5,000 times
degree of sweetness [1]: approximately 5,000 times that of sugar
half-life [2]: ~27.1 days

COC(=O)C[C@H](NC(=O)[C@H](NC(=O)[C@@H](N)CC(=O)O)C(C)C)c1ccccc1 [Example 5, α-L-aspartyl-D-valine (S)-α-methoxycarbonylmethylbenzylamide]
degrees of sweetness [1]: 1500
Degree of sweetness (relative to sugar) [1]: 1,500 times
degree of sweetness [1]: approximately 1,500 times that of sugar
half-life [2]: ~5.79 days

CC[C@@H](NC(=O)[C@@H](N)CC(=O)O)C(=O)NC1(c2ccccc2)CCCC1 [Example 7, α-L-aspartyl-D-α-aminobutyric acid α-phenylcyclopentylamide]
degrees of sweetness [1]: 750
Degree of sweetness (relative to sugar) [1]: 750 times

CC(C)[C@@H](NC(=O)[C@@H](N)CC(=O)O)C(=O)NC1(c2ccccc2)CCCC1 [Example 8, α-L-aspartyl-D-valine α-phenylcyclopentylamide]
degrees of sweetness [1]: 1200
Degree of sweetness (relative to sugar) [1]: 1,200 times
degree of sweetness [1]: approximately 1,200 times that of sugar

CC[C@@H](C)[C@@H](NC(=O)[C@@H](N)CC(=O)O)C(=O)NC(C)(C)c1ccccc1 [Example 9, α-L-aspartyl-D-isoleucine α,α-dimethylbenzylamide]
degrees of sweetness [1]: 250
Degree of sweetness (relative to sugar) [1]: 250 times

CC(C)[C@@H](NC(=O)[C@@H](N)CC(=O)O)C(=O)NC(C)(C)c1ccccc1 [Example 16, α-L-aspartyl-D-valine α,α-dimethylbenzylamide]
degrees of sweetness [1]: 500
Degree of sweetness (relative to sugar) [1]: 500 times

CSC[C@H](NC(=O)[C@H](NC(=O)[C@H](CC(=O)O)NCCC(C)(C)C)C(C)C)c1ccccc1 [Example 17, N-3,3-dimethylbutyl-α-L-aspartyl-D-valine (R)-α-methylthiomethylbenzylamide]
degrees of sweetness [1]: 5000
Degree of sweetness (relative to sugar) [1]: 5,000 times
degree of sweetness [1]: approximately 5,000 times that of sugar

COC(=O)[C@H](Cc1ccccc1)NC(=O)[C@@H](N)CC(=O)O [aspartame, reference compound] (H-Asp-Phe-OMe)
half-life [2]: approximately 23 hours

Source: patent US5958496A, “Aspartyl dipeptide amide derivatives and sweeteners” (Ajinomoto Co., Inc., priority 1996, dated 1999)
